These results are taken from ChEMBL document CHEMBL1201862, “PubChem BioAssay data set” (2004).

Each structure is given as a SMILES string. Activity calls are given as the source filed them. Some results are limits rather than exact numbers.

System in one test: not listed separately
The experiment in a line: Luminescence Cell-Based Dose Retest to Confirm Inhibitors of Cancer Stem Cells. [Related pubchem assays (depositor defined):AID2717, AID2721]. It counts as functional, Homo sapiens. Particulars: Homo sapiens.
With `C=CCn1c(=O)c(C(=O)NCCc2ccccc2)c(O)c2ccccc21`, the concentration at half-maximal activity (AC50) is 5.39 µM (active). Same read-out and setting: for `FC(F)(F)c1cccc(NC(=S)N(CCCN2CCCC2)Cc2cccn2Cc2ccc(Cl)cc2)c1` the value was 3.37 µM (active). The same measure, in the same setting: for `O=C(Nc1ccc(Cl)cc1)Nc1ccccc1Sc1ncc([N+](=O)[O-])s1` the value was 4.23 µM (active); for `COc1ccc2sc(-c3ccc(N(C)C)cc3)c(-c3ccc4cc[nH]c4c3)c2c1`, 3.54 µM (active).

Another test deals with T1, Replicative DNA helicase DnaB (Mycobacterium tuberculosis, UniProt P9WMR3).
T1 sequence (P9WMR3 whole entry): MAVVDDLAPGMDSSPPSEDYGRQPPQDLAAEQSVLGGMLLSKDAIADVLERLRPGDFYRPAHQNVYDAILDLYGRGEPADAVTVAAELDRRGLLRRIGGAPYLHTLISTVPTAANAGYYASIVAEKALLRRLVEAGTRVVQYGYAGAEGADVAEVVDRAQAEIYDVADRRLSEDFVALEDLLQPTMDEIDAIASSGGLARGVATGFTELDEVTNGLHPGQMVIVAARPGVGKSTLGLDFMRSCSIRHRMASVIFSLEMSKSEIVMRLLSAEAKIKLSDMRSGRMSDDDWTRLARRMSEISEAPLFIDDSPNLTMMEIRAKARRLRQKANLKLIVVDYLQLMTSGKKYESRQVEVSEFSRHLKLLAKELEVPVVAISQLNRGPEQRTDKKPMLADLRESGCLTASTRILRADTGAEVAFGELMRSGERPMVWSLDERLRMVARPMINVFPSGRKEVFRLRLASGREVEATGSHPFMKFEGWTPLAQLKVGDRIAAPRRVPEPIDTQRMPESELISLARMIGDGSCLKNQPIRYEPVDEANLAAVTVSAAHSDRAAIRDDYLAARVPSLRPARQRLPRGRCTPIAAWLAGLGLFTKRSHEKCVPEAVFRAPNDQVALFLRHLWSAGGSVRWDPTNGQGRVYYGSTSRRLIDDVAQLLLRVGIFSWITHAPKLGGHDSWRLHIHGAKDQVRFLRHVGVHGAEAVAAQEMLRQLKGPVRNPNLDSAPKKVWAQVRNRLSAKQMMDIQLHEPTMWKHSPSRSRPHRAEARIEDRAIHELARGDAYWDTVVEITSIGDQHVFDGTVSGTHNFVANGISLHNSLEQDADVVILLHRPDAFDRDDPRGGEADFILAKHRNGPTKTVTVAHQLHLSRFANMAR
The experiment in a line: DnaB intein splicing inhibitors, dose response, biochemical, cell-free fluorescence (AID 449749). The format is functional.
Conditions: not given
As for `O=C(CCl)N(c1ccccc1)c1ccccc1`, the concentration at half-maximal activity (AC50) is 17.1 µM (active).

As for `O=C1C(Cl)=C(NCC2CCCO2)C(=O)N1c1ccccc1` (stereo not drawn), the half-maximal activity concentration (AC50) is 18.8 µM (active). Take `N#C/C(=C\c1cccc(O)c1)c1nc2ccccc2o1`: the AC50 is 53.1 µM (active). For `Cc1cc(=O)n(-c2ccc(C(=O)O)cc2)[nH]1`, the half-maximal activity concentration (AC50) was 1.9 µM (active).

On to `Cc1cc2c3c(c1)C(C)CC(C)(C)N3C(=O)C2=C(C#N)C#N` (stereo not drawn), for which the AC50 is 23.8 µM (active). Take `CS/C(=C\[N+](=O)[O-])Nc1ccc(OC(F)(F)F)cc1`: the AC50 was 14.6 µM (active). For the compound `Cc1cc(O)c(C(C)C)cc1/N=C\c1ccccc1O`, the concentration at half-maximal activity (AC50) was 4.29 µM (active). As to `CCOc1ccc(C2C(C#N)=C(N)Oc3[nH]nc(C)c32)cc1OC(=O)C1CC1` (stereo not drawn), the concentration at half-maximal activity (AC50) was 17.7 µM (active). As for `O=C1C([O-])=C([n+]2ccccc2)C(=O)c2ccccc21`, the AC50 is 2.79 µM (active). The same measure, in the same setting: as for `CN(CCc1cnn(C)c1)C(=O)C1CCC(=O)N(CC2CCCCC2)C1` (stereo not drawn), the figure is > 380 µM (inactive). Still for that read-out and setting: for `CC(C)Cc1ccc(-c2cc(O)[nH]n2)cc1` the value was 1.79 µM (active).

The target in another test is T2, Protein RecA (Mycobacterium tuberculosis, UniProt P9WHJ3).
T2 sequence (P9WHJ3 whole entry): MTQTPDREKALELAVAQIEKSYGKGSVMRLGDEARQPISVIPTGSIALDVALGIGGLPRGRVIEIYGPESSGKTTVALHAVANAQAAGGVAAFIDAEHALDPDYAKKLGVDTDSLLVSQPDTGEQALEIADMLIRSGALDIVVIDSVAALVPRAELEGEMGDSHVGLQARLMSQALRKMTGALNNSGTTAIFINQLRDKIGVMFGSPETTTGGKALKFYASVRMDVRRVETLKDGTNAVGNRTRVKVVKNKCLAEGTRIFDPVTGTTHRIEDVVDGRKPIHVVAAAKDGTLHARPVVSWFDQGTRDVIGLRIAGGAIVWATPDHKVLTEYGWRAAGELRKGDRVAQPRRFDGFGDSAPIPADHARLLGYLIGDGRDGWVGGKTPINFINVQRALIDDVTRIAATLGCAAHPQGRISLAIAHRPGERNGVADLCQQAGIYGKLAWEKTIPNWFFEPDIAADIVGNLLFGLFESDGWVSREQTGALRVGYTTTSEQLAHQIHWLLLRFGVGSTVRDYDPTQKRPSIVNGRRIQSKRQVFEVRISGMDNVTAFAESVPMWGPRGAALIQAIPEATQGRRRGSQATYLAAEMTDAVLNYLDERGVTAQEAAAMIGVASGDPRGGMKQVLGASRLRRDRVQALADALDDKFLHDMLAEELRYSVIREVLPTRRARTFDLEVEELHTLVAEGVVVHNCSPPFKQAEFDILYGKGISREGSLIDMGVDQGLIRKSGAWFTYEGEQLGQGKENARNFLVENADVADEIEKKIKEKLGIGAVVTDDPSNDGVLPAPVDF
The experiment in a line: Fluorescence Cell-Free Homogeneous Dose Retest to Identify Inhibitors of RecA-Intein Splicing Activity. [Related pubchem assays (depositor defined):AID2097, AID2223, AID489010, AID492950]. The format is functional.
Conditions: not given
As for `O=C(CCl)N(c1ccccc1)c1ccccc1`, the concentration giving a half-maximal response (EC50) is 0.484 µM (active). Regarding `O=C1C(Cl)=C(NCC2CCCO2)C(=O)N1c1ccccc1` (stereo not drawn), the concentration giving a half-maximal response (EC50) is 6.58 µM (active). Turning to `N#C/C(=C\c1cccc(O)c1)c1nc2ccccc2o1`, the concentration giving a half-maximal response (EC50) was 9.27 µM (active). Consider `Cc1cc(=O)n(-c2ccc(C(=O)O)cc2)[nH]1`, for which the EC50 was 1.92 µM (active). Same read-out and setting: for `Cc1cc2c3c(c1)C(C)CC(C)(C)N3C(=O)C2=C(C#N)C#N` (stereo not drawn) the value was 2.22 µM (active). Same read-out and setting: for `CS/C(=C\[N+](=O)[O-])Nc1ccc(OC(F)(F)F)cc1` the value was 7.21 µM (active); for `Cc1cc(O)c(C(C)C)cc1/N=C\c1ccccc1O`, 8.89 µM (active).

Take `CCOc1ccc(C2C(C#N)=C(N)Oc3[nH]nc(C)c32)cc1OC(=O)C1CC1` (stereo not drawn): the concentration for a half-maximal effect (EC50) was 9.82 µM (active). In the case of `O=C1C([O-])=C([n+]2ccccc2)C(=O)c2ccccc21`, the concentration for a half-maximal effect (EC50) was 3.52 µM (active). For the compound `CN(CCc1cnn(C)c1)C(=O)C1CCC(=O)N(CC2CCCCC2)C1` (stereo not drawn), the EC50 was > 380 µM (inactive). `CC(C)Cc1ccc(-c2cc(O)[nH]n2)cc1`: the EC50 is 0.664 µM (active).

System in a further test: not listed separately
The experiment in a line: NIH3T3 cell viability loss – ATP luminescence, mouse fibroblasts, counter-screen, dose response (AID 2010).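 Further: cells exposed to compound for about 90 hours before reading.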 It counts as functional, cell-based.
Conditions: not given
Background: The purpose of a counterscreen is to sort out artefacts and off-target activity.
`FC(F)(F)c1cccc(NC(=S)N(CCCN2CCCC2)Cc2cccn2Cc2ccc(Cl)cc2)c1`: the concentration for a half-maximal effect (EC50) is recorded as > 60 µM (not active).

System in a further test: not listed separately
Put plainly: Trypanosoma cruzi growth suppression in host cells – NIH3T3 host cells, beta-gal luminescence, confirmation (AID 2044).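 Further: intracellular parasites grown in NIH/3T3 mouse fibroblasts as host cells; luminescent beta-galactosidase reporter signal from transgenic T. cruzi replicating inside host cells; inhibitors lower the luminescence signal.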 It counts as functional, cell-based.
Conditions: not given
For `FC(F)(F)c1cccc(NC(=S)N(CCCN2CCCC2)Cc2cccn2Cc2ccc(Cl)cc2)c1`, the concentration giving a half-maximal response (EC50) is 2.15 µM (active).

The term AC50 denotes the midpoint of the concentration-response curve, whichever way the signal moves. As a reminder, the EC50 is the concentration at which the effect is half-maximal.
